Legend:
[1] = tested on: adrenergic, serotonergic receptors; experiment: Receptor bonding (adrenergic, serotonergic); assay type: binding; settings: for Receptor bonding: result in words
cholinergic function = experiment: Effect on cholinergic function; settings: result in words
[2] = tested on: isolated one-day-old chicks; experiment: chick call test (distress call activation in isolated chicks); assay type: in vivo; settings: for ED150: Gallus gallus, ip
Description: The call frequency of isolated one-day-old chicks which decreases during the course of the test is taken as an experimental behavioural model for manifestations of resignation in depression. […] Neurol. Psychiat.

Tetrabenazine = Tetrabenazine antagonism (ptosis alleviation, mouse); assay type: in vivo; settings: Table 1
LD50, mouse, oral route = settings: in vivo, by oral route

For “1-acetamido-2-pyrrolidinone [Compound B, reference compound]”, the Receptor bonding [1] was “none”, the “Effect on cholinergic function” value (cholinergic function) was “none” and the “Chick call test ED150” value ([2]; i.p., Table 1) was greater than 160 mg/kg. The Tetrabenazine antagonism (ptosis alleviation, mouse) (Tetrabenazine) was greater than 640 mg/kg.
For `O=C1CC(CN2CCOCC2)CN1Cc1ccc(F)cc1` (centres unmarked) [1-(4-Fluorobenzyl)-4-(morpholinomethyl)-pyrrolidin-2-one], the ED150 ([2]; Table II) was 80 mg/kg.
In the case of `COc1ccc(CN2CC(CN)CC2=O)cc1` (centres unmarked) [C, 1-(4-Methoxybenzyl)-4-aminomethyl-pyrrolidin-2-one], the ED150 ([2]; Table II) is reported as 25 mg/kg.
In the case of `NCC1CC(=O)N(Cc2ccccc2)C1` (centres unmarked) [Compound A, 1-benzyl-4-aminomethyl-pyrrolidin-2-one], the IC50 [1] is reported as greater than 10 µM, the Receptor bonding [1] is reported as “none” and the LD50 (LD50, mouse, oral route) is reported as greater than 2000 mg/kg. The “Effect on cholinergic function” value (cholinergic function) was “Demand”, the ED150 ([2]; Table 1) was 40 mg/kg and the Tetrabenazine antagonism (ptosis alleviation, mouse) (Tetrabenazine) was 100 mg/kg.
With `NCC1CC(=O)N(Cc2ccc(F)cc2)C1` (centres unmarked) [D, 1-(4-Fluorobenzyl)-4-aminomethyl-pyrrolidin-2-one] the ED150 ([2]; Table II) was 20 mg/kg.
Work on `CN1CCN(CC2CC(=O)N(Cc3ccccc3)C2)CC1` (centres unmarked) [H, 1-Benzyl-4-(N-methylpiperazinylmethyl)-pyrrolidin-2-one] yielded an ED150 ([2]; Table II) of 18 mg/kg.
With `CCN(CC)CC1CCC(=O)N1Cc1ccccc1` (centres unmarked) [J, 1-Benzyl-5-diethylaminomethyl-pyrrolidin-2-one] the ED150 ([2]; Table II) was 0.01 mg/kg.
`O=C1CCC(CN2CCCC2)N1Cc1ccccc1` (centres unmarked) [K, 1-Benzyl-5-pyrrolidinomethyl-pyrrolidin-2-one] gave an ED150 ([2]; Table II) of 0.1 mg/kg.
`CN(C)CC1CCC(=O)N1Cc1ccc(Cl)cc1` (centres unmarked) [L, 1-(p-chlorobenzyl)-5-dimethylaminomethyl-pyrrolidin-2-one] showed an ED150 ([2]; Table II) of 0.1 mg/kg.
